Experimental data reported in paper PMC7774954, “Interactomic affinity profiling by holdup assay: Acetylation and distal residues impact the PDZome-binding specificity of PTEN phosphatase” (PLoS ONE, 2020).
*1 amine or outer side, *2 acyl side, *3 side chain or, on linkers, in order; H or OH if unused. Where a SMILES comes first, the peptide text is derived from it. The star is where a group is joined. X1 = O=C(CCCC[C@@H]1SC[C@@H]2NC(=O)N[C@@H]21)NCCCOCCOCCOCCCN*; Suc = O=C(CCC(=O)[*:2])[*:1]

System: 266 human PDZ domains (PDZome)
Experiment: Holdup assay (chromatographic retention, PDZome-binding profile, BI)
Set-up: key to maximal BI / Max BI / BI: binding intensity: 0.00 = no binding, 1.00 = maximal binding; Log(Kd): unit not given here
Method in brief: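 Streptavidin resin was saturated with biotinylated 11-mer or 13-mer PTEN PBM peptides (42 μM loading solution), with biotin-only resin as the reference. Resins were incubated for 15 min with lysates containing MBP- or thioredoxin-tagged PDZ domains adjusted to 4 μM, in singlicate. Free PDZ in the filtrate was quantified by capillary electrophoresis, and depletion versus reference gave binding intensity (0–1).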

[1] = PDZ domain PARD3-1, first of two lines so named (r186)

For `CC[C@H](C)[C@H](NC(=O)[C@H](CCC(N)=O)NC(=O)[C@@H](NC(=O)[C@H](Cc1c[nH]cn1)NC(=O)[C@H](CCC(N)=O)NC(=O)[C@H](CC(=O)O)NC(=O)[C@H](CCC(=O)O)NC(=O)[C@H](CC(=O)O)NC(=O)CCC(=O)NCCCOCCOCCOCCCNC(=O)CCCC[C@@H]1SC[C@@H]2NC(=O)N[C@@H]21)[C@@H](C)O)C(=O)N[C@H](C(=O)N[C@@H](CCCNC(=N)N)C(=O)N[C@H](C(=O)O)C(C)C)[C@@H](C)O` [PTEN_KR] ({X1-Suc}-DEDQHTQITRV-OH), the “number of additional new PDZ partners not detected for PTEN_11” value (BI>0.20, compared with PTEN_11) was no less than 11, the BI (PDZ domain MPDZ-2) was 0.021 and the BI (PDZ domain MPDZ-3) was 0.034. The BI (PDZ domain MPDZ-4) was -0.021, the BI (PDZ domain MPDZ-5) was 0.058 and the BI (PDZ domain MPDZ-6) was 0.033. The BI (PDZ domain MPDZ-7) was 0.267, the BI (PDZ domain MPDZ-8) was 0.128 and the BI (PDZ domain MPDZ-13) was 0.454. The BI (PDZ domain MPP1-1) was -0.046, the BI (PDZ domain MPP2-1) was -0.03 and the BI (PDZ domain MPP3-1) was -0.023. The BI (PDZ domain MPP4-1) was 0.067, the BI (PDZ domain MPP5-1) was -0.045 and the BI (PDZ domain MPP6-1) was -0.058. The BI (PDZ domain MPP7-1) was -0.023, the BI (PDZ domain NHERF1-2) was 0.063 and the BI (PDZ domain NHERF3-2) was 0.002. It also gave a BI (PDZ domain NHERF3-3) of 0.185, a BI (PDZ domain NHERF4-1) of 0.041 and a BI (PDZ domain NHERF4-2) of -0.071. The BI (PDZ domain NHERF4-3) was -0.035, the BI (PDZ domain NHERF4-4) was 0.01 and the BI (PDZ domain NOS1-1) was 0.039. The BI [1] was 0.3, the “Log(Kd)” value [1] was 4.255 and the BI (PDZ domain PARD3-1, second of two lines so named (r187)) was -0.046. The BI (PDZ domain PARD3B-1) was -0.02, the BI (PDZ domain PARD3B-2) was -0.019 and the BI (PDZ domain PARD3B-3) was -0.035. The BI (PDZ domain PARD6G-1) was -0.023, the BI (PDZ domain PDLIM1-1) was -0.2 and the BI (PDZ domain PDLIM2-1) was 0.034. For the same compound, the BI (PDZ domain PDLIM3-1) was -0.065, the BI (PDZ domain PDLIM4-1) was -0.087 and the BI (PDZ domain PDLIM5-1) was 0.086. The BI (PDZ domain PDLIM7-1) was -0.042, the BI (PDZ domain PDZD2-1) was -0.056 and the BI (PDZ domain PDZD2-3) was -0.096. The BI (PDZ domain PDZD2-4) was -0.092, the BI (PDZ domain PDZD2-5) was -0.089 and the BI (PDZ domain PDZD2-6) was 0.089. The BI (PDZ domain PDZD4-1) was 0.031, the BI (PDZ domain PDZD7-1) was -0.024 and the BI (PDZ domain PDZD7-2) was -0.039. The BI (PDZ domain PDZD7-3) was 0.756, the BI (PDZ domain PDZD8-1) was 0.006 and the BI (PDZ domain PDZD11-1) was -0.048. The BI (PDZ domain PDZRN4-1) was 0.048, the BI (PDZ domain PDZRN4-2) was -0.071 and the BI (PDZ domain PPP1R9A-1) was 0.012. For the same compound, the BI (PDZ domain PPP1R9B-1) was 0.038, the BI (PDZ domain PREX2-2) was -0.004 and the BI (PDZ domain PRX-1) was 0.025. For the same compound, the BI (PDZ domain PSMD9-1) was -0.039, the BI (PDZ domain PTPN3-1) was 0.12 and the BI (PDZ domain PTPN4-1) was -0.038. The BI (PDZ domain PTPN13-1) was -0.017, the BI (PDZ domain PTPN13-5) was 0.096 and the BI (PDZ domain RAPGEF2-1) was -0.11. For the same compound, the BI (PDZ domain RHPN2-1) was -0.087, the BI (PDZ domain RIMS1-1) was 0.013 and the BI (PDZ domain SCRIB-1) was 0.042. The BI (PDZ domain SCRIB-2) was 0.147, the BI (PDZ domain SCRIB-4) was 0.039 and the BI (PDZ domain SDCBP-2) was -0.067. It also gave a BI (PDZ domain SHANK1-1) of 0.547, a BI (PDZ domain SHANK3-1) of 0.554 and a BI (PDZ domain SHROOM2-1) of 0.058. It also gave a BI (PDZ domain SHROOM3-1) of 0.042, a BI (PDZ domain SHROOM4-1) of -0.148 and a BI (PDZ domain SIPA1L2-1) of 0.064. It also gave a BI (PDZ domain SIPA1L3-1) of -0.006, a BI (PDZ domain SNTA1-1) of 0.395 and a BI (PDZ domain SNTB1-1) of 0.503. For the same compound, the BI (PDZ domain SNTG1-1) was 0.076, the BI (PDZ domain SNTG2-1) was 0.383 and the BI (PDZ domain STXB4-1) was -0.075. It also gave a BI (PDZ domain SYNJ2BP-1) of -0.026, a BI (PDZ domain SYNP2-1) of -0.044 and a BI (PDZ domain SYNPO2L-1) of -0.021. For the same compound, the BI (PDZ domain TIAM2-1) was 0.037, the BI (PDZ domain TJP1-2) was -0.006 and the BI (PDZ domain TJP1-3) was 0.099. For the same compound, the BI (PDZ domain TJP2-1) was 0.086, the BI (PDZ domain TJP2-2) was -0.005 and the BI (PDZ domain TJP2-3) was -0.025. It also gave a BI (PDZ domain TJP3-2) of 0.112, a BI (PDZ domain TJP3-3) of 0.12 and a BI (PDZ domain TX1B3-1) of -0.019. The BI (PDZ domain USH1C-1) was -0.098, the BI (PDZ domain USH1C-2) was -0.039 and the BI (PDZ domain USH1C-3) was -0.061. For the same compound, the “number of PDZ domains identified as potential binders (BI>0.20)” value (holdup, singlicate, threshold BI>0.20) was 37 PDZ domains, the “maximal BI” value (holdup, singlicate, highest BI in the PDZome profile, BI standard error ~0.07) was 0.86 and the “binding of several PDZ domains (in words)” value (including several ones from MAGI and NHERF) was “detectably bound”. The “Max BI” value (maximum over PDZome) was 0.86 and the “number of partners detected for PTEN_KR and not for PTEN_Ac” value (over a total of 37) was 8.
